Results published in patent US20130244255A1, “ANTIBODIES DIRECTED TO GPNMB AND USES THEREOF” (priority 2006, published 2013).

Assays:
[1] = test system: A2058; assay: Clonogenic assay with 1.15.1-AE; format: cell-based, human
Description: (§1) Melanoma cell lines were plated onto flat bottom 96-well tissue culture plates (Becton Dickinson, Franklin Lakes, N.J., USA). On day 2 or when cells reach ˜25% confluency, various concentrations of unconjugated and Auristatin E-conjugated 1.15.1 were added to cells. MAb 2.6.2-AE was also used as a conjugated isotype control in this study. On day 5, the cells were trypsinized, transferred to 6-well tissue culture plates and incubated at 37° C. Plates were examined daily. On days 8-10, all plates were Giemsa stained and colonies on the plates were counted.

[2] = test system: HEMNLP; assay: Clonogenic assay with 1.15.1-AE; format: cell-based, human
Description: as §1

[3] = test system: HT144; assay: Clonogenic assay with 1.15.1-AE; format: cell-based, human
Description: as §1

[4] = test system: LOXIMVI; assay: Clonogenic assay with 1.15.1-AE; format: cell-based, human
Description: as §1

[5] = test system: M14; assay: Clonogenic assay with 1.15.1-AE; format: cell-based, human
Description: as §1

[6] = test system: MEWO; assay: Clonogenic assay with 1.15.1-AE; format: cell-based, human
Description: as §1

[7] = test system: SK-MEL-2 melanoma xenografts; assay: Dosing interval (schedule dependency) study, SK-MEL-2 xenograft; format: in vivo, athymic mice
Description: Nota bene: Please note that, although all 5 sets of groups in this experiment (e.g., groups 5, 6, and 7 represent one set and received 32, 8, and 2 mg/kg cumulative dose, respectively) received the same cumulative doses, the first set receiving the “bolus dose” is different from the other 4 sets. The Cmax for each group in the “bolus” set was likely four-fold higher that the Cmax for the other 4 sets (see section on pharmacokinetics for dose-linearity after i.v. administration), since 4 sets of groups received 4 treatments, whereas the first set received only one “bolus” treatment (see column 7, Table 49 below).
The aggregate responses for each set of groups, where a set is defined as 3 groups of graduated dosage levels but one dosage interval (groups 5, 6, and 7 represent 1 set, all of which were treated with a dosing interval of 1 day) are shown in FIG. 7. […] However, this effect was not significant (P<0.2904).
The original design of this study was expanded to include an examination of the effects of various dosage levels. For each set, one group of animals received a cumulative dose of 8 mg/kg, which, from previous studies employing a dosing interval of 4 days, provided consistent therapeutic effects leading to long-term tumor-free animals. In addition, cumulative doses of 2 mg/kg and 32 mg/kg were employed.

[8] = test system: SK-MEL-2 human melanoma xenograft; assay: SK-MEL-2 human melanoma xenograft in athymic mice; format: in vivo; details: observation period >200 days
[9] = target: T1, CG56972 (Homo sapiens, UniProt Q14956); assay: Flow cytometry of CR011 binding to cell surface CG56972/GPNMB (GMR)
T1 construct: endogenous in cells; host or cells: SK-MEL-2, XF-498, U-118-MG, SNB-78, SF-539, SF-268 and further human lines (ATCC / NCI)
T1 sequence (Q14956 23-572): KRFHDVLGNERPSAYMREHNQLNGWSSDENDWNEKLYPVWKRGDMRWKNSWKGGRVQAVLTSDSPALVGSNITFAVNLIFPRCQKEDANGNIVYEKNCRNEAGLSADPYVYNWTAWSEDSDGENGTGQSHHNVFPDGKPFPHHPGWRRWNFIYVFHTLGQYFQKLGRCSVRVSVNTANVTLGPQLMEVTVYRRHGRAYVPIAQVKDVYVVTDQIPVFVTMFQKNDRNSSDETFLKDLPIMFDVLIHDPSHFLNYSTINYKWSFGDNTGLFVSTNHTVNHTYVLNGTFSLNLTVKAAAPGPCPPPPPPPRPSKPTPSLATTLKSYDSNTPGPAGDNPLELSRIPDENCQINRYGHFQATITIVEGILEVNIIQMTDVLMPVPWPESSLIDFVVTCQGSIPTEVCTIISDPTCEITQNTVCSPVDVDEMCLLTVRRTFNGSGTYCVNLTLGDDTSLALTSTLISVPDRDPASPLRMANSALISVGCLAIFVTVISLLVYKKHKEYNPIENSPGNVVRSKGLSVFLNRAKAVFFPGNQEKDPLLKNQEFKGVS
Description: (§2) Quantitative analysis of GPNMB expression on the cell surface of cell lines was determined by flow cytometry. […] Cells were fixed in 1% paraformaldehyde/PBS and examined on a Becton Dickinson FACSCalibur flow cytometer. Data analysis was performed with Becton Dickinson Cell Quest software version 3.3 and the geometric mean fluorescence intensity ratio (GMR) was determined for each cell type.
as §2, with “CG56972” for “GPNMB”, “the” for “the cell”, “cytometry (FACS).” for “cytometry.”

“CR011-vcMMAE: CR011 conjugated to monomethyl auristatin E through a protease cleavable valine-citrulline linker; approx. 4 drugs per antibody” was tested, and the “Clonogenic Assay with 1.15.1-AE IC50 in ng/mL” value (“Clonogenic Assay” for short) [1] was “No effect”, the “Clonogenic Assay” value [2] was “Inconclusive” and the “Clonogenic Assay” value [3] was “Inconclusive”. For the same substance, the “Clonogenic Assay” value [4] was “No effect”, the “Clonogenic Assay” value [5] was “Inconclusive” and the “Clonogenic Assay” value [6] was “Inconclusive”. The complete regressors ([7]; 2 mg/kg cumulative dose) was 13%, the complete regressions ([7]; 8 mg/kg cumulative dose, all dosing intervals (28/30)) was 93% and the complete regressions ([7]; cumulative dose of 32 mg/kg, all dosing intervals (30 test animals)) was 100%. For the same substance, the “schedule dependency of anti-tumor effects” value ([7]; dosing intervals 0, 1, 4, 8, 16 days) was “not schedule-dependent” and the “re-growth of completely regressed tumors” value [8] was “did not re-grow”.

For “CR011: fully human monoclonal antibody that specifically binds to GPNMB; VH SEQ ID NO: 20, VL SEQ ID NO: 29”, the “surface staining above control mAb background” value ([9]; SF-268, CR011 10 μg/mL) was “around 1.5 fold”, the “surface staining above isotype control mAb background” value ([9]; SF-539, CR011 10 μg/mL) was “at least 1.5 fold” and the “cell surface staining (in words)” value ([9]; SK-MEL-2) was “strong cell surface staining”. The “surface staining above isotype control mAb background” value ([9]; SNB-78, CR011 10 μg/mL) was “at least 1.5 fold”, the “surface staining above isotype control mAb background” value ([9]; U-118-MG, CR011 10 μg/mL) was “at least 1.5 fold” and the “surface staining above isotype control mAb background” value ([9]; XF-498, CR011 10 μg/mL) was “at least 1.5 fold”.
